Data on 19 molecules can be found in patent US10287305B2, “Substituted piperidine compound and use thereof” (Takeda Pharmaceutical Company Limited, priority 2016, dated 2019).

This assay addresses human orexin type 2 receptor (hOX2R) (Homo sapiens (Human), UniProt O43614). Nature of the assay: Measurement of orexin type 2 receptor agonist activity (Experimental Example 2-1, FLIPR TETRA, intracellular Ca2+). It counts as cell-based. Particulars: CHO dhfr- cells expressing hOX2R; for Emax: read-out: Emax (%); for Emax at 30 µM: value at 30 uM concentration, orexin B as full agonist = 100%. The text has this: To obtain a cell clone stably expressing human orexin type 2 receptor, human orexin type 2 receptor cDNA was inserted into pcDNA3.1(+) plasmid vector (Invitrogen), and a plasmid DNA for expression of human orexin type 2 receptor (pcDNA3.1(+)/hOX2R) was cloned. The plasmid DNA was introduced into CHO-dhfr cell by an electroporation method, and human orexin type 2 receptor expressing clone cells were obtained by limiting dilution method by using G418 drug resistance as a selection marker.
Chinese hamster ovary (CHO) dhfr-cells forcibly expressing human orexin type 2 receptor (hOX2R) were seeded in each well of Black clear bottom plate (384 wells) (Becton, Dickinson and Company) by 10,000 cells, and cultured for 16 hr in an MEM-alpha (Nikken-Bio Co., Ltd.) medium containing 100 U/ml penicillin, 100 μg/ml streptomycin, […] G418 (all above Invitrogen), and 10% fetal calf serum (Thermo), under the conditions of 37° C., 5% CO2. […] A test compound was dissolved in dimethyl sulfoxide to 10 mM, and then diluted with assay buffer 2 (20 mM HEPES, Hanks' balanced salt solution (Invitrogen), 0.1% bovine serum albumin). For the reaction, a test compound solution (10 μL) was added using Fluorescent Imaging Plate Reader TETRA (FLIPR TETRA; manufactured by Molecular Devices), a fluorescence value (excitation wavelength 488 nm, measurement wavelength 570 nm) of each well was measured every one second for 1 min, and the agonist activity was determined using the area of the fluorescence value as an indicator of intracellular Ca^2+ concentration.

The mark [1] stands for this setting: agonist activity, 10 nM human orexin B = 100%.

Chain of human orexin type 2 receptor (hOX2R) (O43614 whole entry): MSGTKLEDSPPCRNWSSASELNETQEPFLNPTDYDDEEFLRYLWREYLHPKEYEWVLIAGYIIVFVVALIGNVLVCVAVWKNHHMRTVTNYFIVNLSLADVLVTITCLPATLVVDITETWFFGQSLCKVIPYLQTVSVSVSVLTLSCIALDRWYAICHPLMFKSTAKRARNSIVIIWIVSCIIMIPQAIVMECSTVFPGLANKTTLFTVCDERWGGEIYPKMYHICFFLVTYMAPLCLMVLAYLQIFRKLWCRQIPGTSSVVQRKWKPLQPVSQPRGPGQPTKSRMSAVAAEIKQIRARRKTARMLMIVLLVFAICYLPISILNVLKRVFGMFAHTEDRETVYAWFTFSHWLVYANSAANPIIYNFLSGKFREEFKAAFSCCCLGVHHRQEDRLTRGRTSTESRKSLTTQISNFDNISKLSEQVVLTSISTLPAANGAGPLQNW

A word on the EC50: it is the concentration giving half of the maximal effect. Read a low EC50 as a more potent agent. As a reminder, the Emax is the size of the effect at its maximum, as opposed to the concentration needed. For the molecule `CCOC(=O)N1CCC[C@H](NS(C)(=O)=O)[C@@H]1CO[C@H]1CC[C@@H](c2ccccc2)CC1` [Example 303, ethyl (2R,3S)-3-((methylsulfonyl)amino)-2-(((cis-4-phenylcyclohexyl)oxy)methyl)-piperidine-1-carboxylate], for the setting “FLIPR TETRA, Fluo-4AM”, a half-maximal response (EC50) required 15 nM and the maximum response (Emax) worked out at 102%.

For the molecule `CCNC(=O)N1CCC[C@H](NS(C)(=O)=O)[C@@H]1CO[C@H]1CC[C@@H](c2ccn(C)n2)CC1` (relative stereo) [Example 159, cis-N-ethyl-2-(((cis-4-(1-methyl-1H-pyrazol-3-yl)cyclohexyl)oxy)methyl)-3-((methylsulfonyl)amino)piperidine-1-carboxamide], under “FLIPR TETRA, Fluo-4AM”, a half-maximal effect (EC50) was put at 140 nM and the Emax is 96%.

`COC(=O)N1CCC[C@H](NS(C)(=O)=O)[C@@H]1CO[C@H]1CC[C@@H](c2ccccc2C(F)F)CC1` [Example 324, methyl (2R,3S)-2-(((cis-4-(2-(difluoromethyl)phenyl)cyclohexyl)-oxy)methyl)-3-((methylsulfonyl)amino)piperidine-1-carboxylate]: the “Emax (%)” value (FLIPR TETRA, Fluo-4AM) was determined as 95%.

For the molecule `COCCNC(=O)N1CCC[C@H](NS(C)(=O)=O)[C@@H]1CO[C@H]1CC[C@@H](C(C)C)CC1` (relative stereo) [Example 96, cis-2-(((cis-4-isopropylcyclohexyl)oxy)methyl)-N-(2-methoxyethyl)-3-((methylsulfonyl)amino)piperidine-1-carboxamide], the Emax at 30 µM turned out to be 95%. Also, the EC50 under setting [1] turned out to be 26 nM.

For the molecule `CCS(=O)(=O)N[C@H]1CCCN(C(=O)Nc2ccccc2)[C@H]1CO[C@H]1CC[C@@H](C)CC1` (relative stereo) [Example 37, cis-3-((ethylsulfonyl)amino)-2-(((cis-4-methylcyclohexyl)oxy)methyl)-N-phenylpiperidine-1-carboxamide], the maximal response (Emax) at 30 µM was 97%. The midpoint of the response under setting [1], the EC50, lay at 880 nM.

With `CS(=O)(=O)N[C@H]1CCCN(C(=O)C2CCOCC2)[C@H]1CO[C@H]1CC[C@@H](c2ccccc2)CC1` (relative stereo) [Example 121, N-(cis-2-(((cis-4-phenylcyclohexyl)oxy)methyl)-1-(tetrahydro-2H-pyran-4-ylcarbonyl)piperidin-3-yl)methanesulfonamide], under “FLIPR TETRA, Fluo-4AM”, a half-maximal effect (EC50) was put at 8.8 nM and the Emax amounted to 111%.

The molecule `COC(=O)N1CCC[C@H](NS(C)(=O)=O)[C@@H]1CO[C@H]1CC[C@@H](c2cccc(F)c2F)CC1` [Example 20, methyl (2R,3S)-2-(((cis-4-(2,3-difluorophenyl)cyclohexyl)oxy)methyl)-3-((methylsulfonyl)amino)piperidine-1-carboxylate] showed a maximal effect (Emax) at 30 µM of 100%.

The molecule `CS(=O)(=O)N[C@H]1CCCN[C@H]1CO[C@H]1CC[C@@H](c2cc(F)ccc2F)CC1` [Example 10, N-((2R,3S)-2-(((cis-4-(2,5-difluorophenyl)cyclohexyl)oxy)methyl)piperidin-3-yl)methanesulfonamide] showed an Emax at 30 µM of 113%. Under setting [1], this molecule returned a concentration giving a half-maximal response (EC50) of 220 nM.

With `CS(=O)(=O)N[C@H]1CCCN(C(=O)OC2CC2)[C@H]1CO[C@H]1CC[C@@H](c2cccc(F)c2)CC1` [Example 272, cyclopropyl (2R,3S)-2-(((cis-4-(3-fluorophenyl)cyclohexyl)oxy)methyl)-3-((methylsulfonyl)amino)piperidine-1-carboxylate], under “FLIPR TETRA, Fluo-4AM”, the concentration giving a half-maximal response (EC50) worked out at 28 nM and the maximum response (Emax) turned out to be 96%.

On to `COc1ccccc1[C@H]1CC[C@@H](OC[C@H]2[C@@H](NS(C)(=O)=O)CCCN2C(=O)C2CC2)CC1` [Example 28, N-((2R,3S)-1-(cyclopropylcarbonyl)-2-(((cis-4-(2-methoxyphenyl)cyclohexyl)oxy)methyl)piperidin-3-yl)methanesulfonamide], for which the Emax at 30 µM stood at 96%. The 50% effective concentration (EC50) under setting [1] was 2.7 nM.

For the molecule `CS(=O)(=O)N[C@H]1CCCN(C(=O)C2CC2)[C@H]1CO[C@H]1CC[C@@H](c2cccc(F)c2)CC1` [Example 16, N-((2R,3S)-1-(cyclopropylcarbonyl)-2-(((cis-4-(3-fluorophenyl)cyclohexyl)oxy)methyl)piperidin-3-yl)methanesulfonamide], the Emax at 30 µM amounted to 99%. In addition, under setting [1], the EC50 stood at 0.84 nM.

On to `CC(C)[C@H]1CC[C@@H](OC[C@H]2[C@@H](NS(C)(=O)=O)CCCN2C(=O)N(C)C)CC1` (relative stereo) [Example 40, cis-2-(((cis-4-isopropylcyclohexyl)oxy)methyl)-N,N-dimethyl-3-((methylsulfonyl)amino)piperidine-1-carboxamide], for which the Emax at 30 µM was 91%. This molecule also showed a half-maximal effective concentration (EC50) under setting [1] of 720 nM.

For `CS(=O)(=O)N[C@H]1CCCN(C(=O)[C@H]2CCOC2)[C@H]1CO[C@H]1CC[C@@H](c2ccccc2)CC1` [Example 149, N-(cis-2-(((cis-4-phenylcyclohexyl)oxy)methyl)-1-((3S)-tetrahydrofuran-3-ylcarbonyl)piperidin-3-yl)methanesulfonamide], under “FLIPR TETRA, Fluo-4AM”, a half-maximal response (EC50) required 25 nM and the Emax stood at 100%.

`COCC(=O)N1CCC[C@H](NS(C)(=O)=O)[C@@H]1CO[C@H]1CC[C@@H](C(C)C)CC1` (relative stereo) [Example 45, N-(cis-2-(((cis-4-isopropylcyclohexyl)oxy)methyl)-1-(methoxyacetyl)piperidin-3-yl)methanesulfonamide] had an Emax at 30 µM of 100%. The molecule also had a 50% effective concentration (EC50) under setting [1] of 330 nM.

As for `CC(=O)N1CCC[C@H](NS(C)(=O)=O)[C@@H]1CO[C@H]1CC[C@@H](c2ccccc2Cl)CC1` (relative stereo) [Example 334, N-(cis-1-acetyl-2-(((cis-4-(2-chlorophenyl)cyclohexyl)oxy)-methyl)piperidin-3-yl)methanesulfonamide], where the note is “FLIPR TETRA, Fluo-4AM”, a half-maximal effect (EC50) was put at 27 nM and the Emax was 93%.

For the molecule `CS(=O)(=O)N[C@H]1CCCN[C@H]1CO[C@H]1CC[C@@H](c2ccccc2F)CC1` (relative stereo) [Example 115, N-(cis-2-(((cis-4-(2-fluorophenyl)cyclohexyl)oxy)methyl)piperidin-3-yl)methanesulfonamide], the maximal effect (Emax) at 30 µM turned out to be 97%. The molecule further came in with an EC50 under setting [1] of 770 nM.

As to `CCNC(=O)N1CCC[C@H](NS(C)(=O)=O)[C@@H]1CO[C@H]1CC[C@@H](c2cccc(C#N)c2)CC1` (relative stereo) [Example 254, cis-2-(((cis-4-(3-cyanophenyl)cyclohexyl)oxy)methyl)-N-ethyl-3-((methylsulfonyl)amino)piperidine-1-carboxamide], under “FLIPR TETRA, Fluo-4AM”, the response was half-maximal at 88 nM (EC50) and the Emax came to 105%.

For `CS(=O)(=O)N[C@H]1CCCN(C(=O)C2CC2)[C@H]1COC1CCN(c2cccc(F)c2Cl)CC1` (relative stereo) [Example 209, N-(cis-2-(((1-(2-chloro-3-fluorophenyl)piperidin-4-yl)oxy)methyl)-1-(cyclopropylcarbonyl)piperidin-3-yl)methanesulfonamide], for the setting “FLIPR TETRA, Fluo-4AM”, the EC50 was 1900 nM and the maximum response (Emax) came to 89%.

For the molecule `CCS(=O)(=O)N[C@H]1CCCN(C(=O)C2CC2)[C@H]1CO[C@H]1CC[C@@H](c2ccccc2)CC1` (relative stereo) [Example 279, N-(cis-1-(cyclopropylcarbonyl)-2-(((cis-4-phenylcyclohexyl)oxy)methyl)piperidin-3-yl)ethanesulfonamide], under “FLIPR TETRA, Fluo-4AM”, the concentration for a half-maximal effect (EC50) was 5.2 nM and the maximal effect (Emax) was found to be 97%.
